# Assay results: ChEMBL document CHEMBL1145618, “Discovery of trypanocidal thiosemicarbazone inhibitors of rhodesain and TbcatB” (Bioorg Med Chem Lett, 2008)
# Key:
# [1] = Inhibition of Trypanosoma brucei rhodesain
# [2] = Inhibition of Trypanosoma brucei cathepsin B
# [3] = test system: Trypanosoma brucei; experiment: Antitrypanosomal activity against Trypanosoma brucei; assay type: functional, organism-based
# [4] = molecular target: Procathepsin L (Homo sapiens, UniProt P07711); experiment: Inhibition of human cathepsin L
# Chain of Procathepsin L (P07711 whole entry): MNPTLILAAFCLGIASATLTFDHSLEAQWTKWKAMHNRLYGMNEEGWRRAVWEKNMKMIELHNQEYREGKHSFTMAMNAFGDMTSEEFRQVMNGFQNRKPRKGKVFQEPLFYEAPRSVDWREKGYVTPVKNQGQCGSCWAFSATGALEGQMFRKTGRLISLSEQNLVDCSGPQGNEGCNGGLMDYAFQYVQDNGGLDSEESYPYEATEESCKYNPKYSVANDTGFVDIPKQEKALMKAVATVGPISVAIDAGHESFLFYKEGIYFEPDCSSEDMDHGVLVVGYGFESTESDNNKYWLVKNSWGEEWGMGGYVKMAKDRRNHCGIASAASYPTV
# [5] = molecular target: Cathepsin B (Homo sapiens, UniProt P07858); experiment: Inhibition of human cathepsin B
# [6] = Therapeutic index, ratio of EC50 for human Raji cells to EC50 for Trypanosoma brucei; assay type: cell-based; conditions: Raji cells (versus Trypanosoma brucei), read-out: Ratio EC50
Structure (SMILES),EC50 [3] [µM],IC50 [4] [µM],IC50 [5] [µM],IC50 [1] [µM],IC50 [2] [µM],selectivity ratio [6]
NC(=S)N/N=C(/c1cc(C(F)(F)F)cc(C(F)(F)F)c1)c1cccs1,7,0.0101,0.3,0.007,0.15,> 4
Cc1ccc(/C(=N/NC(N)=S)c2cccc(F)c2)cc1,> 10,0.044,4.5,0.089,> 25,–
NC(=S)N/N=C(/CCc1ccccc1)c1ccccc1,> 10,0.91,> 25,1.5,> 25,–
NC(=S)N/N=C(/c1cc(Cl)cc(Cl)c1)c1cccs1,7,0.0036,0.3,0.011,0.45,> 4
Cc1ccc(/C(=N/NC(N)=S)c2cccc(C(F)(F)F)c2)cc1,1.5,0.0094,0.21,0.008,0.21,> 17
NC(=S)N/N=C(\CCc1ccccc1)c1cc(C(F)(F)F)cc(C(F)(F)F)c1,2,0.017,3,0.053,> 25,> 10

# The next lines start with results.
EC50 [3] [µM],IC50 [4] [µM],IC50 [5] [µM],Structure (SMILES),IC50 [1] [µM],IC50 [2] [µM],selectivity ratio [6]
6,0.118,22,NC(=S)N/N=C(/CCc1ccccc1)c1cccc(F)c1,0.39,> 25,> 4
1.3,0.0074,3.3,Cc1ccc(/C(=N\NC(N)=S)c2cc(C(F)(F)F)cc(C(F)(F)F)c2)cc1 [THIOSEMICARBAZONE STANDARD],0.044,15,> 19
3.7,0.021,6,NC(=S)N/N=C(/CCc1ccccc1)c1cccc(Cl)c1,0.042,> 25,> 6.7
1.1,0.011,1.8,Cc1ccc(/C(=N\NC(N)=S)c2cc(Cl)cc(Cl)c2)cc1,0.046,6,> 9
1.3,0.039,4.9,NC(=S)N/N=C(\CCc1ccccc1)c1cc(Cl)cc(Cl)c1,0.057,> 25,> 19
> 10,1.02,13,Cc1ccc(/C(=N/NC(N)=S)c2ccccc2)cc1,0.5,> 25,–
2.5,0.081,1.7,NC(=S)N/N=C(/C=C/c1ccccc1)c1cccc(C(F)(F)F)c1,0.029,7,> 10
